Data on one molecule can be found in patent US20100004248A1, “Use of a Nitric Oxide Synthase Modulator for the Treatment of Cardiac Indications” (priority 2005, published 2010).

SMILES strings stand for the structures.

Assay [1] has as its system C57/BL6 WT mice subjected to TAC pressure overload. The assay can be described thus: Transthoracic echocardiography in conscious TAC mice. Type of assay: in vivo, mouse. The settings on record: WT mice, TAC 3 weeks, oral co-treatment 1 mg/g food; mean ± sem. The source says:
Male NOS3 null mice (NOS3^−/−) and C57/BL6 WT controls (8-11 weeks, Jackson Labs, Bar Harbor, Me., USA) were used. Pressure overload was produced by transverse aorta constriction (TAC). Briefly, The aortic arch was isolated by entering the extrapleural space between the second and third rib, and afterwards the transverse aorta was isolated between the right and left carotid arteries. A 7-0 prolene suture ligature was tied around the transverse aorta against a 27-gauge needle to produce a 65-70% constriction after the removal of the needle. After closing the chest, animals were extubated, and a subcutaneous injection of morphine sulphate 0.2 mg, was administered before they returned to their cages. Animal's ventilatory and circulatory status was checked every 30 minutes during the first 2 hours. Sham-operated mice underwent the same operation except for aortic constriction. […] Animals were randomized to receive placebo or BH4 (120 mg/kg/d) for the next 5 weeks. At the end of the study, i.e. at 9 weeks, animal were sacrificed to receive tissue or underwent in vivo PV-loop analysis. […] Control mice were subject to sham operations, and animals were studied 3-9 weeks following surgery. An additional group of wild-type animals were subjected to TAC for 3 weeks while co-treated with oral tetrahydrobiopterin (BH4) (Sigma-Aldrich) (1 mg/g food) mixed in their rodent chow, providing 5 mg/day based on 4-6 g daily diet^8.
Two different BH4 treatment protocols are used. For experiments related to FIGS. 1-7, where prevention of cardiac indications is described BH4 is provided orally as a treatment starting 2 days after TAC surgery (once mice are again eating oral diet). For those figures related to treatment of established cardiac indications, FIGS. 8-23, BH4 is provided orally but this is delayed for 4 weeks to establish substantial cardiac hypertrophy, remodeling, and NOS-uncoupling. Then the treatment is provided for the remaining 5 week period.
For folate studies, C57/BL6 WT were treated with folate (10 mg/kg/day) or with placebo for a 9 week period during which time the hearts were exposed to TAC.
In vivo cardiac morphology was assessed by transthoracic echocardiography (Acuson Sequoia C256, 13 MHz transducer, Siemens) in conscious mice. M-mode left ventricular (LV) end-systolic and end-diastolic dimensions were averaged from 3-5 beats. Left ventricular ejection fraction (LVEF) and percent fractional shortening (% FS) were calculated as: LVEF=[(LVEDD)^3-(LVESD)^3]/(LVEDD)^3×100; % FS=(LVEDD−LVESD)/LVEDD×100. Wall thickness of lateral freewall and intraventricular septum were averaged. Studies and analysis were performed blinded to heart condition.

The next assay addresses T1, NOS3 (Mus musculus, UniProt P70313).
T1 construct: from tissue; host or cells: mouse heart (myocardium) after sham or TAC surgery
T1 sequence (P70313 2-1202 limits assumed): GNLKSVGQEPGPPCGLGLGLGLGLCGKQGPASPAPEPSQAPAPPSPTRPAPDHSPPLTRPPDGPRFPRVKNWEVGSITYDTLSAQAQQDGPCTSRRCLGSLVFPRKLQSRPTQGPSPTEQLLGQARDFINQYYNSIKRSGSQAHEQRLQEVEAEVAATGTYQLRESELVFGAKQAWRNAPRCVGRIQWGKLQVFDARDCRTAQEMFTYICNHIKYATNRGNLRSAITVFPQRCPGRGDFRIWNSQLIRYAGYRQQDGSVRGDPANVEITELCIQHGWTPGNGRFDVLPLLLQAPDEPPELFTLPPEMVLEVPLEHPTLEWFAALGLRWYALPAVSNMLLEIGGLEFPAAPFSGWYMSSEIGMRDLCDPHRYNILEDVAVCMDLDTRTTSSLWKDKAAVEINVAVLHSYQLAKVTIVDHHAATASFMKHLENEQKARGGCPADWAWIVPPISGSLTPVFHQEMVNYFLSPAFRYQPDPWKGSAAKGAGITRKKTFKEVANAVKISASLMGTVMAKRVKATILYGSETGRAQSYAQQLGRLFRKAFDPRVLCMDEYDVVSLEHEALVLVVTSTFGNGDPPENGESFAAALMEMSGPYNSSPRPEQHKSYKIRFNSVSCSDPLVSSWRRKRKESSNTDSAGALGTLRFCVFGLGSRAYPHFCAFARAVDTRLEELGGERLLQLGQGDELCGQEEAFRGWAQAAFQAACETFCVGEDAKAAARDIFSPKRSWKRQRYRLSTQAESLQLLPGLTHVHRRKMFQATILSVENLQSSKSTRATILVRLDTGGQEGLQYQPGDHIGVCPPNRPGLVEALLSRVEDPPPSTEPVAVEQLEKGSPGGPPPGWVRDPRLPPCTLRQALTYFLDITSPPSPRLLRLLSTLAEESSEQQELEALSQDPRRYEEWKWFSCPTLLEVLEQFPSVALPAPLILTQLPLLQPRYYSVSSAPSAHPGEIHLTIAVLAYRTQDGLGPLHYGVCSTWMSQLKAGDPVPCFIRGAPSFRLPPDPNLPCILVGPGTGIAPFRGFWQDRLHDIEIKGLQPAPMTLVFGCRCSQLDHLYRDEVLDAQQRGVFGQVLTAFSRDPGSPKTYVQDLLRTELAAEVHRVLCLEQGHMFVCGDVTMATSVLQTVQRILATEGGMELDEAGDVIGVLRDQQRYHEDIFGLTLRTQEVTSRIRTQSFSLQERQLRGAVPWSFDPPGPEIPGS
The assay can be described thus: NOS3 dimer/monomer by low-temperature SDS-PAGE in TAC hearts. Type of assay: in vivo. To be noted: WT mice, TAC 3 weeks, oral co-treatment. The method, then: SDS-resistant NOS3 dimers and monomers were assayed using low-temperature SDS PAGE under reducing or non-reducing conditions, as described previously^7. NOS3 was immunoprecipitated as described^16 and the resulting samples added to fivefold Laemmli buffer (0.32 mol/l Tris-HCl, pH 6.8, 0.5 mol/l glycine, 10% SDS, 50% glycerol, and 0.03% bromophenol blue) in non-reducing gel (no 2-mercaptoethanol) to identify dimer dissociation due to reduced disulfide bridges. To provide fully denatured control lanes, samples were boiled for 15 minutes prior to loading. Electrophoresis was performed using Tris glycine 6% gels (Invitrogen Corp.), and gels and buffers maintained in an ice bath at 4° C. and stained (SimplyBlue, Invitrogen Corp.). Calcium dependent and independent NOS activity was determined from myocardial homogenates by [3H] L-arginine to [3H] citrulline conversion (Sigma-Aldrich) as described^16. An alternative approach involved more direct Western blot analysis without requiring initial NOS IP. Cold SDS-Page Western blot analysis was performed using a self-made […] SDS-Tris gel. After overnight running on ice, the gel was transferred for 3 h to nitrocellulose membrane. […] Bound antibodies were detected with horseradish peroxidase-conjugated anti-mouse IgG and visualize with an enhanced chemiluminescence detection system.

On to `Nc1nc2c(c(=O)[nH]1)NC(C(O)C(O)CO)CN2` (centres unmarked) [H4N, tetrahydroneopterin], for which, in assay [1], the “Fractional Shortening” value was 33.8 ± 5.3%, the “LV diameter Diastole” value came to 3.94 ± 0.19 mm, the “LV diameter Systole” value amounted to 2.70 ± 0.31 mm and the Wall thickness was determined as 0.98 ± 0.03 mm. For the same molecule, at NOS3, the NOS3 dimerization entry is given as “unaltered”.
